From PMC12892976, “Alkylation-based optimization of antifungal FPPS inhibitors yields a potent, broad-spectrum lipophilic zoledronate derivative” (mBio, 2025)
In brackets after ≈: the same amount, converted by molar mass.

What was measured:
[1] = system: Lomentospora prolificans; assay: MIC broth microdilution (CLSI); format: cell-based; conditions: Lomentospora prolificans 80-16-101-2445
Description: (§1) Antifungal susceptibility was determined by broth microdilution according to the CLSI guidelines described in M27-Ed4 ([16]).

[2] = system: Saccharomyces cerevisiae; assay: MIC/MFC broth microdilution (CLSI); format: cell-based; conditions: Saccharomyces cerevisiae S288c
Description: (§2) Antifungal susceptibility was determined by broth microdilution according to the CLSI guidelines described in M27-Ed4 ([16]). […] MFC was determined by back-plating drug-treated cultures from MIC broths onto SDA plates. The MFC was defined as the lowest concentration from which no colonies could be cultured.

[3] = system: Candida albicans; assay: MIC/MFC broth microdilution (CLSI); format: cell-based; conditions: Candida albicans SC5314
Description: as §2

[4] = system: Candida parapsilosis; assay: MIC broth microdilution (CLSI); format: cell-based; conditions: Candida parapsilosis ATCC 22018
Description: as §2

[5] = system: Aspergillus udagawae; assay: MIC broth microdilution (CLSI); format: cell-based; conditions: Aspergillus udagawae 8G81
Description: as §1

[6] = system: Cryptococcus deuterogattii; assay: checkerboard drug interaction (FICI, MICc); format: cell-based;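 further: simplified diagonal checkerboard screen pairing antifungal drugs with FPPS inhibitors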
Description: (§3) Drug interactions between antifungals and FPPS inhibitors were investigated using a simplified checkerboard diagonal screening method ([45]). […] FICIs were determined according to the Loewe additivity model ([17]).

[7] = system: Cryptococcus neoformans; assay: checkerboard drug interaction (FICI, MICc); format: cell-based;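 further: antifungal plus FPPS inhibitor pairs tested against Cryptococcus neoformans by simplified diagonal checkerboard screening, FICI computed under the Loewe additivity model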
Description: as §3

[8] = system: Saccharomyces cerevisiae; assay: checkerboard drug interaction (FICI, MICc); format: cell-based;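 further: simplified diagonal checkerboard screen pairing antifungals with FPPS inhibitors, FICI calculated under the Loewe additivity model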
Description: as §3

[9] = system: Candida glabrata; assay: checkerboard drug interaction (FICI, MICc); format: cell-based;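 further: simplified diagonal checkerboard screen pairing antifungals with FPPS inhibitors, FICI calculated under the Loewe additivity model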
Description: as §3

[10] = system: Candida albicans; assay: checkerboard drug interaction (FICI, MICc); format: cell-based;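 further: antifungal plus FPPS inhibitor combinations on Candida albicans tested by a simplified diagonal checkerboard screen, with FICI calculated under the Loewe additivity model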
Description: as §3

[11] = system: Aspergillus flavus; assay: checkerboard drug interaction (FICI, MICc); format: cell-based;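 further: simplified diagonal checkerboard screen pairing azole antifungals with FPPS inhibitors, FICI calculated under the Loewe additivity model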
Description: as §3

[12] = system: Aspergillus fumigatus; assay: checkerboard drug interaction (FICI, MICc); format: cell-based;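 further: simplified diagonal checkerboard screen pairing antifungals with FPPS inhibitors against Aspergillus fumigatus, with FICI calculated under the Loewe additivity model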
Description: as §3

[13] = system: Trichophyton rubrum; assay: checkerboard drug interaction (FICI, MICc); format: cell-based;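 further: simplified diagonal checkerboard screen pairing azole antifungals with FPPS inhibitors, FICI calculated under the Loewe additivity model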
Description: as §3

[14] = system: Cryptococcus deuterogattii; assay: MIC/MFC broth microdilution (CLSI); conditions: for MIC / MEC: Cryptococcus deuterogattii R265;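 on all read-outs here: broth microdilution per CLSI M27-Ed4. MFC is the lowest concentration yielding no colonies when MIC broths are subcultured onto SDA plates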
Description: as §2

[15] = system: Cryptococcus neoformans; assay: MIC/MFC broth microdilution (CLSI); conditions: for MIC / MEC: Cryptococcus neoformans H99;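 on all read-outs here: susceptibility testing followed the CLSI M27-Ed4 broth microdilution document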
Description: as §2

[16] = system: Candida glabrata; assay: MIC/MFC broth microdilution (CLSI); conditions: for MIC / MEC: Candida glabrata CBS138 (ATCC 2001);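 on all read-outs here: broth microdilution following CLSI M27-Ed4, MFC taken as the lowest drug level yielding no growth once MIC wells were subcultured on SDA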
Description: as §2

[17] = system: Aspergillus flavus; assay: MIC/MFC broth microdilution (CLSI); conditions: ATCC204304
Description: as §2

[18] = system: Aspergillus fumigatus; assay: MIC/MFC broth microdilution (CLSI); conditions: ATCC204305
Description: as §2

[19] = system: Trichophyton rubrum; assay: MIC/MFC broth microdilution (CLSI); conditions: for MIC / MEC: Trichophyton rubrum R-218
Description: as §2

SMILES | MIC / MEC [2] [mg/L] | MIC / MEC [3] [mg/L] | MIC / MEC [4] [mg/L] | antifungal MICc ([6]; in combination with 10-ZOL) | antifungal MICc ([6]; in combination with ZOL) | antifungal MICc ([7]; in combination with 10-ZOL) | antifungal MICc ([7]; in combination with ZOL) | antifungal MICc ([8]; in combination with 10-ZOL) | antifungal MICc ([8]; in combination with ZOL) | antifungal MICc ([9]; in combination with 10-ZOL) | antifungal MICc ([9]; in combination with ZOL) | antifungal MICc ([10]; in combination with 10-ZOL) | antifungal MICc ([10]; in combination with ZOL) | antifungal MICc ([11]; in combination with 10-ZOL) | antifungal MICc ([11]; in combination with ZOL) | antifungal MICc ([12]; in combination with 10-ZOL) | antifungal MICc ([12]; in combination with ZOL) | antifungal MICc ([13]; in combination with 10-ZOL) | antifungal MICc ([13]; in combination with ZOL) | MIC / MEC [14] [mg/L] | also measured
Nc1nc(=O)[nH]cc1F [5FC, 5-flucytosine] | 1 (≈ 7.75 µM) | 0.25 (≈ 1.94 µM) | 0.5 (≈ 3.87 µM) | 0.5 | 0.125 | 0.25 | 1 | 1 | 1 | 0.125 | 0.125 | 0.125 | 0.25 | 256 | 128 | 256 | 128 | 32 | 128 | 8 (≈ 62 µM) | MIC / MEC [1]: >64 mg/L; MIC / MEC [5]: >64 mg/L; MIC / MEC [15]: 4 mg/L (≈ 31 µM); MIC / MEC [16]: 0.25 mg/L (≈ 1.94 µM); MIC / MEC [17]: >64 mg/L; MIC / MEC [18]: >64 mg/L; MIC / MEC [19]: >64 mg/L
C[C@@H]1[C@H](O)[C@@H](C)/C=C/C=C/C=C/C=C/C=C/C=C/C=C/[C@H](O[C@@H]2O[C@H](C)[C@@H](O)[C@H](N)[C@@H]2O)C[C@@H]2O[C@](O)(C[C@@H](O)C[C@@H](O)[C@H](O)CC[C@@H](O)C[C@@H](O)CC(=O)O[C@H]1C)C[C@H](O)[C@H]2C(=O)O [AMB, amphotericin B] | 0.25 (≈ 0.271 µM) | 0.25 (≈ 0.271 µM) | 0.5 (≈ 0.541 µM) | 0.25 | 0.25 | 0.5 | 0.5 | 0.25 | 0.5 | 0.5 | 0.125 | 0.25 | 0.25 | 0.5 | 0.25 | 0.125 | 0.25 | 0.5 | 2 | 0.25 (≈ 0.271 µM) | MIC / MEC [1]: 16 mg/L (≈ 17.3 µM); MIC / MEC [5]: 2 mg/L (≈ 2.16 µM); MIC / MEC [15]: 0.25 mg/L (≈ 0.271 µM); MIC / MEC [16]: 0.25 mg/L (≈ 0.271 µM); MIC / MEC [17]: 0.5 mg/L (≈ 0.541 µM); MIC / MEC [18]: 0.25 mg/L (≈ 0.271 µM); MIC / MEC [19]: 1 mg/L (≈ 1.08 µM)
OC(Cn1cncn1)(Cn1cncn1)c1ccc(F)cc1F [FLC, fluconazole] | 4 (≈ 13.1 µM) | 0.5 (≈ 1.63 µM) | 2 (≈ 6.53 µM) | 2 | 4 | 2 | 4 | 1 | 1 | 1 | 0.25 | 1 | 2 | 32 | 64 | 8 | 64 | 8 | 16 | 4 (≈ 13.1 µM) | MFC [2]: 64 µg/mL (≈ 209 µM); MIC [2]: 4 µg/mL (≈ 13.1 µM); MFC [3]: 4 µg/mL (≈ 13.1 µM); MIC [3]: 0.5 µg/mL (≈ 1.63 µM); effective concentration in combination ([12]; FLC with 10-ZOL added, A. fumigatus): 8 µg/mL; MIC ([14]; Cryptococcus deuterogattii): 2 µg/mL (≈ 6.53 µM); MIC ([15]; Cryptococcus neoformans): 2 µg/mL (≈ 6.53 µM); MIC / MEC [15]: 4 mg/L (≈ 13.1 µM); MIC / MEC [16]: 4 mg/L (≈ 13.1 µM); MIC ([16]; Nakaseomyces glabratus, CBS138): 4 µg/mL (≈ 13.1 µM); MIC [17]: 64 µg/mL (≈ 209 µM); MIC ([19]; Trichophyton rubrum): 64 µg/mL (≈ 209 µM); MIC / MEC [19]: 64 mg/L (≈ 209 µM)
